Results reported in US20090176817A1, “Method of Treatment of Diarrhea-Predominant Irritable Bowel Syndrome in a Subject” (priority 2005, published 2009).
Where two headings read alike, the source gives them in different places. Each block holds one molecule with its values, some of them ahead of it.

Columns and labels:
[1] = Study S.241.1.104: Ortho Tri-Cyclen pharmacokinetics with cilansetron 2 mg TID; assay type: in vivo, human; details: for Cmin / Cmax / AUC / half-life: arith. mean; for AUC: read-out: AUC(0-τ); for half-life: read-out: T½ (converted)
From the text: The effects of concomitant administration of cilansetron and a commonly used oral contraceptive, Ortho Tri-Cyclen (ORC), on the pharmacokinetics and pharmacodynamics of ORC and the pharmacokinetics of cilansetron has been evaluated in a randomized, double-blind, placebo-controlled, multiple-dose, 2-period, crossover study in 20 healthy, female subjects, aged 19 to 42 years. Subjects received the following two treatments during each of two 28-day study periods (2 ORC cycles) in a randomized, crossover fashion: Treatment B (reference treatment)−ORC on Days 1-28 (standard ORC cycle)+placebo TID on Days 14-20 and a single dose of placebo on Day 21; Treatment A (test treatment)−ORC on Days 1-28 (standard ORC cycle)+cilansetron 2 mg TID on Days 14-20 and a single dose of cilansetron 2 mg on Day 21. […] For evaluation of the effect of concomitant cilansetron on the pharamacodynamics of ORC, blood samples were collected prior to morning dosing on Days 18, 19, 20, 26, 27, and 28 for measurement of serum progesterone (PG), luteinizing hormone (LH), and follicle stimulating hormone (FSH) concentrations, and untransformed data were compared statistically between treatments.

[2] = tested on: CYP3A4 (cilansetron metabolism); experiment: in vitro; details: human, human hepatic microsomes, probe cilansetron (100 μM), overall metabolism
[3] = tested on: CYP3A4 (formation of 4-hydroxy metabolites of cilansetron); experiment: in vitro; details: human, human hepatic microsomes, probe cilansetron (100 μM), formation of the 4-hydroxy metabolites
[4] = tested on: cilansetron metabolism (ketoconazole 25 μM used as general inhibitor); experiment: in vitro; details: human, human hepatic microsomes, probe cilansetron (100 μM), overall metabolism
[5] = tested on: patients with malignant tumors; experiment: Study S.241.2.101: cisplatin-induced nausea and vomiting; assay type: in vivo, human; details: IV 8 mg TID
Description: (§1) The effect of cilansetron on nausea and vomiting has been studied in 2 clinical studies in cancer patients. Both studies were randomized, singleblind, positive-controlled, parallel-group, pilot studies in male and female patients with malignant tumors, to investigate the effect of cilansetron on cytostatic-induced nausea and vomiting. In both studies, patients were on their first cycle of chemotherapy and were being treated with cisplatin (275 mg/m2 as a single dose in Study S.24 1.2.10 1 and […] for 5 days in Study K.24 1 S O 17). Patients in Study S.24 1.2.10 1 were aged 40-74 years (ITT population=16) and patients in Study K.24 1 S O 17 were aged 39-74 years (ITT population=19). In both studies, patients were randomized to receive either […] or IV ondansetron 8 mg TID for 1 day (Study S.241.2.101) or 5 days (Study K.2415017), corresponding to the day(s) of their cisplatin administration. If nausea and vomiting were completely controlled on a treatment day, the second and/or third doses of cilansetron or ondansetron could be omitted on that day. The primary efficacy parameter in both studies was the combination of the occurrence of vomiting and the severity of nausea, with a responder being defined as a patient with no vomiting and not more than mild nausea during the treatment day(s). […]

[6] = tested on: patients with malignant tumors; experiment: Study K.241.5017: cisplatin-induced nausea and vomiting; assay type: in vivo, human; details: IV 8 mg TID
Description: as §1

[7] = female, human, plasma, oral, ORC + Cilansetron 2 mg TID, Day 21
[8] = female, human, plasma, oral, ORC + Placebo, Day 21

Cmin ([1]; ORC + Cilansetron 2 mg TID, Day 21): 0.022 ng/mL
Cmin ([1]; ORC + Placebo, Day 21): 0.024 ng/mL
Cmax [1, 7]: 0.144 ng/mL
AUC [1, 7]: 1.21 ng·h/mL
half-life [1, 7]: 20.9 h
Tmax ([1]; female, human, plasma, oral, ORC + Cilansetron 2 mg TID, Day 21, median): 1.25 h
Cmax [1, 8]: 0.156 ng/mL
AUC [1, 8]: 1.32 ng·h/mL
half-life [1, 8]: 21.2 h
Mean AUC(0-τ) decrease with concomitant cilansetron ([1]; in vivo): 10%
Mean Cmax decrease with concomitant cilansetron ([1]; in vivo): 8%
SMILES: C#C[C@]1(O)CC[C@H]2[C@@H]3CCc4cc(O)ccc4[C@H]3CC[C@@]21C [EE, ethinyl estradiol]

inhibition at 1 μM [2]: ~70%
inhibition at 1 μM [3]: 47%
inhibition at 25 μM [4]: 93%
SMILES: CC(=O)N1CCN(c2ccc(OCC3COC(Cn4ccnc4)(c4ccc(Cl)cc4Cl)O3)cc2)CC1 (stereo not shown) [ketoconazole]

SMILES: Cc1nccn1CC1CCc2c(c3ccccc3n2C)C1=O (stereo not shown) [ondansetron, reference compound]
Response rate [5]: 25.0%
Response rate [6]: 60.0%
